# According to ChEMBL document CHEMBL1201862, “PubChem BioAssay data set” (2004):
#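 Following 48 hours of exposure in 96-well plates, responses at five concentrations were used to interpolate endpoints linearly. GI50 is the concentration that inhibits growth by half.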 The source made the active and inactive calls. Cut-off read from the data, not from the text of the source: active = GI50 up to about 1.1 µM and inactive = higher.
# Columns and labels:
# Experiment in all cases: DTP human tumour cell line panel, 48 h
# SF-295 = test system: SF-295
# MDA-N = test system: MDA-N
# A549 = test system: A549
# MDA-MB-231 = test system: MDA-MB-231
# HOP-92 = test system: HOP-92
# SNB-75 = test system: SNB-75
# A498 = test system: A498
# HCT-116 = test system: HCT-116
# U-251 = test system: U-251
# OVCAR-8 = test system: OVCAR-8
# M14 = test system: M14
# HT-29 = test system: HT-29
# OVCAR-4 = test system: OVCAR-4
# Hs-578T = test system: Hs-578T
# IGROV-1 = test system: IGROV-1
# OVCAR-5 = test system: OVCAR-5
# SK-MEL-2 = test system: SK-MEL-2
# KM12 = test system: KM12
# RXF 393 = test system: RXF 393
# SR = test system: SR
# NCI/ADR-RES = test system: NCI/ADR-RES
# OVCAR-3 = test system: OVCAR-3
# Malme-3M = test system: Malme-3M
# LOX IMVI = test system: LOX IMVI
# UACC-62 = test system: UACC-62
# PC-3 = test system: PC-3
# T47D = test system: T47D
# 786-0 = test system: 786-0
# UACC-257 = test system: UACC-257
# SNB-19 = test system: SNB-19
# RPMI-8226 = test system: RPMI-8226
# HCT-15 = test system: HCT-15
# CCRF-CEM = test system: CCRF-CEM
# NCI-H226 = test system: NCI-H226
# MCF7 = test system: MCF7
# SK-MEL-5 = test system: SK-MEL-5
# HL-60 = test system: HL-60
# TK-10 = test system: TK-10
# COLO 205 = test system: COLO 205
# CAKI-1 = test system: CAKI-1
# SN12C = test system: SN12C
# SF-268 = test system: SF-268
# DU-145 = test system: DU-145
# HOP-62 = test system: HOP-62
# SK-OV-3 = test system: SK-OV-3
# UO-31 = test system: UO-31
# SK-MEL-28 = test system: SK-MEL-28
# ACHN = test system: ACHN
# BT-549 = test system: BT-549
# NCI-H522 = test system: NCI-H522
# SW-620 = test system: SW-620
# K562 = test system: K562
# HCC 2998 = test system: HCC 2998
# EKVX = test system: EKVX
# MDA-MB-435 = test system: MDA-MB-435
# NCI-H23 = test system: NCI-H23
# NCI-H460 = test system: NCI-H460
# MOLT-4 = test system: MOLT-4
# SF-539 = test system: SF-539
smiles,measurement,setting,value
Nc1nc(SCc2ccccc2Cl)cc(C(=O)O)n1,GI50,SF-295,58.2 µM (inactive)
same,GI50,MDA-N,96.4 µM (inactive)
same,GI50,A549,> 100 µM (inactive)
same,GI50,MDA-MB-231,> 100 µM (inactive)
same,GI50,HOP-92,46.2 µM (inactive)
same,GI50,SNB-75,> 100 µM (inactive)
same,GI50,A498,> 100 µM (inactive)
same,GI50,HCT-116,54.5 µM (inactive)
same,GI50,U-251,54.8 µM (inactive)
same,GI50,OVCAR-8,46.9 µM (inactive)
same,GI50,M14,> 100 µM (inactive)
same,GI50,HT-29,> 100 µM (inactive)
same,GI50,OVCAR-4,60 µM (inactive)
same,GI50,Hs-578T,49.1 µM (inactive)
same,GI50,IGROV-1,> 100 µM (inactive)
same,GI50,OVCAR-5,78 µM (inactive)
same,GI50,SK-MEL-2,58.9 µM (inactive)
same,GI50,KM12,55.5 µM (inactive)
same,GI50,RXF 393,> 100 µM (inactive)
same,GI50,SR,39 µM (inactive)
same,GI50,NCI/ADR-RES,33.4 µM (inactive)
same,GI50,OVCAR-3,28.6 µM (inactive)
same,GI50,Malme-3M,39.4 µM (inactive)
same,GI50,LOX IMVI,44.4 µM (inactive)
same,GI50,UACC-62,> 100 µM (inactive)
same,GI50,PC-3,53.6 µM (inactive)
same,GI50,T47D,> 100 µM (inactive)
same,GI50,786-0,79.1 µM (inactive)
same,GI50,UACC-257,> 100 µM (inactive)
same,GI50,SNB-19,> 100 µM (inactive)
same,GI50,RPMI-8226,54.1 µM (inactive)
same,GI50,HCT-15,41.9 µM
same,GI50,CCRF-CEM,32.2 µM (inactive)
same,GI50,NCI-H226,49.1 µM (inactive)
same,GI50,MCF7,> 100 µM (inactive)
same,GI50,SK-MEL-5,76.9 µM (inactive)
same,GI50,HL-60,64.1 µM (inactive)
same,GI50,TK-10,> 100 µM (inactive)
same,GI50,COLO 205,39.4 µM (inactive)
same,GI50,CAKI-1,> 100 µM (inactive)
same,GI50,SN12C,97.1 µM (inactive)
same,GI50,SF-268,52.7 µM (inactive)
same,GI50,DU-145,> 100 µM (inactive)
same,GI50,HOP-62,63.1 µM (inactive)
same,GI50,SK-OV-3,> 100 µM (inactive)
same,GI50,UO-31,67 µM (inactive)
same,GI50,SK-MEL-28,87.3 µM (inactive)
same,GI50,ACHN,91.4 µM (inactive)
same,GI50,BT-549,97.9 µM (inactive)
same,GI50,NCI-H522,30.9 µM (inactive)
same,GI50,SW-620,70.6 µM (inactive)
same,GI50,K562,46.5 µM (inactive)
same,GI50,HCC 2998,59.2 µM (inactive)
same,GI50,EKVX,54.1 µM (inactive)
same,GI50,MDA-MB-435,73.1 µM (inactive)
same,GI50,NCI-H23,57.4 µM (inactive)
same,GI50,NCI-H460,41.5 µM (inactive)
Cc1cc(=O)oc2c(CN3CCCCC3)c(O)ccc12,GI50,SF-295,> 100 µM (inactive)
same,GI50,MDA-N,> 100 µM (inactive)
same,GI50,A549,> 100 µM (inactive)
same,GI50,MDA-MB-231,> 100 µM (inactive)
same,GI50,HOP-92,> 100 µM (inactive)
same,GI50,SNB-75,> 100 µM (inactive)
same,GI50,A498,> 100 µM (inactive)
same,GI50,HCT-116,> 100 µM (inactive)
same,GI50,U-251,> 100 µM (inactive)
same,GI50,OVCAR-8,> 100 µM (inactive)
same,GI50,M14,> 100 µM (inactive)
same,GI50,HT-29,> 100 µM (inactive)
same,GI50,OVCAR-4,> 100 µM (inactive)
same,GI50,Hs-578T,> 100 µM (inactive)
same,GI50,IGROV-1,> 100 µM (inactive)
same,GI50,OVCAR-5,> 100 µM (inactive)
same,GI50,SK-MEL-2,> 100 µM (inactive)
same,GI50,RXF 393,> 100 µM (inactive)
same,GI50,SR,> 100 µM (inactive)
same,GI50,NCI/ADR-RES,> 100 µM (inactive)
same,GI50,OVCAR-3,> 100 µM (inactive)
same,GI50,Malme-3M,> 100 µM (inactive)
same,GI50,LOX IMVI,> 100 µM (inactive)
same,GI50,UACC-62,> 100 µM (inactive)
same,GI50,PC-3,> 100 µM (inactive)
same,GI50,T47D,> 100 µM (inactive)
same,GI50,786-0,> 100 µM (inactive)
same,GI50,UACC-257,> 100 µM (inactive)
same,GI50,SNB-19,> 100 µM (inactive)
same,GI50,RPMI-8226,> 100 µM (inactive)
same,GI50,HCT-15,> 100 µM
same,GI50,CCRF-CEM,> 100 µM (inactive)
same,GI50,NCI-H226,> 100 µM (inactive)
same,GI50,MCF7,> 100 µM (inactive)
same,GI50,SK-MEL-5,> 100 µM (inactive)
same,GI50,HL-60,> 100 µM (inactive)
same,GI50,TK-10,> 100 µM (inactive)
same,GI50,COLO 205,> 100 µM (inactive)
same,GI50,CAKI-1,> 100 µM (inactive)
same,GI50,SN12C,> 100 µM (inactive)
same,GI50,SF-268,> 100 µM (inactive)
same,GI50,DU-145,> 100 µM (inactive)
same,GI50,HOP-62,> 100 µM (inactive)
same,GI50,SK-MEL-28,> 100 µM (inactive)
same,GI50,ACHN,> 100 µM (inactive)
same,GI50,BT-549,> 100 µM (inactive)
same,GI50,MOLT-4,> 100 µM (inactive)
same,GI50,NCI-H522,> 100 µM (inactive)
same,GI50,SW-620,> 100 µM (inactive)
same,GI50,K562,> 100 µM (inactive)
same,GI50,HCC 2998,> 100 µM (inactive)
same,GI50,EKVX,> 100 µM (inactive)
same,GI50,MDA-MB-435,> 100 µM (inactive)
same,GI50,NCI-H23,> 100 µM (inactive)
same,GI50,SF-539,> 100 µM (inactive)
same,GI50,NCI-H460,> 100 µM (inactive)
